In patent EP4635500A1, “THERAPEUTIC AGENT FOR BACTERIAL INFECTION” (Sumitomo Pharma Co., Ltd., priority 2022, dated 2024):
Converted amounts (≈) assume the structure as drawn. Where two headings read alike, the source gives them in different places.

Experiments:
Format in all cases: cell-based
P. aeruginosa = assay: MIC, broth microdilution, CDC/FDA Antibiotic Resistance Isolate Bank (Example 7, Tables 10, 15); settings: for MIC: Pseudomonas aeruginosa, read-out: MIC
Klebsiella pneumoniae = assay: MIC, broth microdilution, standard strains and Japanese clinical isolates (Example 5, Table 4); settings: IMP-6
Escherichia coli = assay: as above; settings: ATCCBAA2452; KUB4005 Escherichia coli ATCC BAA-2452, NDM-1
Providencia rettgeri = assay: as above; settings: ATCCBAA2525; KUB4010 Providencia rettgeri ATCC BAA-2525, OXA-181
CRE and CPE strains = assay: MIC, broth microdilution, standard strains and Japanese clinical isolates (Example 5, Table 4 continued; organism of each KUB strain not given)

SMILES: C[C@H]1[C@H](NC(=O)/C(=N\OC(C)(C)C(=O)O)c2csc(N)n2)C(=O)N1S(=O)(=O)O [Aztreonam, aztreonam]
- MIC against 26 metallo-carbapenemase-producing strains MIC50 (P. aeruginosa; 26 metallo-carbapenemase-producing P. aeruginosa strains, β-lactamase inhibitor µg/mL in parentheses): 16 µg(mL)
- MIC against 96 strains of P. aeruginosa MIC50 (P. aeruginosa; 96 strains of P. aeruginosa, β-lactamase inhibitor µg/mL in parentheses): 16 µg(mL)
- MIC (P. aeruginosa; P. aeruginosa KUB No. 579, AR Bank # 447): 4 µg/mL (≈ 9.19 µM)
- MIC (P. aeruginosa; P. aeruginosa KUB No. 5551, AR Bank # 54): 32 µg/mL (≈ 73.5 µM)
- MIC (P. aeruginosa; P. aeruginosa KUB No. 5561, AR Bank # 64): 16 µg/mL (≈ 36.7 µM)
- MIC (P. aeruginosa; P. aeruginosa KUB No. 5592, AR Bank # 95): 16 µg/mL (≈ 36.7 µM)
- MIC (P. aeruginosa; P. aeruginosa KUB No. 5597, AR Bank # 100): 32 µg/mL (≈ 73.5 µM)
- MIC (P. aeruginosa; P. aeruginosa KUB No. 5600, AR Bank # 103): 16 µg/mL (≈ 36.7 µM)
- MIC (P. aeruginosa; P. aeruginosa KUB No. 5602, AR Bank # 105): 32 µg/mL (≈ 73.5 µM)
- MIC (P. aeruginosa; P. aeruginosa KUB No. 5605, AR Bank # 108): 8 µg/mL (≈ 18.4 µM)
- MIC (P. aeruginosa; P. aeruginosa KUB No. 5607, AR Bank # 110): 4 µg/mL (≈ 9.19 µM)
- MIC (P. aeruginosa; P. aeruginosa KUB No. 5608, AR Bank # 111): 2 µg/mL (≈ 4.59 µM)
- MIC (P. aeruginosa; P. aeruginosa KUB No. 5663, AR Bank # 230): 4 µg/mL (≈ 9.19 µM)
- MIC (P. aeruginosa; P. aeruginosa KUB No. 5665, AR Bank # 232): 4 µg/mL (≈ 9.19 µM)
- MIC (P. aeruginosa; P. aeruginosa KUB No. 5666, AR Bank # 23): 16 µg/mL (≈ 36.7 µM)
- MIC (P. aeruginosa; P. aeruginosa KUB No. 5667, AR Bank # 234): 2 µg/mL (≈ 4.59 µM)
- MIC (P. aeruginosa; P. aeruginosa KUB No. 5669, AR Bank # 236): 2 µg/mL (≈ 4.59 µM)
- MIC (P. aeruginosa; P. aeruginosa KUB No. 5670, AR Bank # 237): 4 µg/mL (≈ 9.19 µM)
- MIC (P. aeruginosa; P. aeruginosa KUB No. 5671, AR Bank # 238): 4 µg/mL (≈ 9.19 µM)
- MIC (P. aeruginosa; P. aeruginosa KUB No. 5672, AR Bank # 239): 32 µg/mL (≈ 73.5 µM)
- MIC (P. aeruginosa; P. aeruginosa KUB No. 5673, AR Bank # 240): 32 µg/mL (≈ 73.5 µM)
- MIC (P. aeruginosa; P. aeruginosa KUB No. 5674, AR Bank # 241): 32 µg/mL (≈ 73.5 µM)
- MIC (P. aeruginosa; P. aeruginosa KUB No. 5675, AR Bank # 242): 4 µg/mL (≈ 9.19 µM)
- MIC (P. aeruginosa; P. aeruginosa KUB No. 5676, AR Bank # 243): 2 µg/mL (≈ 4.59 µM)
- MIC (P. aeruginosa; P. aeruginosa KUB No. 5677, AR Bank # 244): 32 µg/mL (≈ 73.5 µM)
- MIC (P. aeruginosa; P. aeruginosa KUB No. 5678, AR Bank # 245): 16 µg/mL (≈ 36.7 µM)
- MIC (P. aeruginosa; P. aeruginosa KUB No. 5680, AR Bank # 247): 4 µg/mL (≈ 9.19 µM)
- MIC (P. aeruginosa; P. aeruginosa KUB No. 5681, AR Bank # 248): 4 µg/mL (≈ 9.19 µM)
- MIC (P. aeruginosa; P. aeruginosa KUB No. 5682, AR Bank # 249): 32 µg/mL (≈ 73.5 µM)
- MIC (P. aeruginosa; P. aeruginosa KUB No. 5684, AR Bank # 251): 32 µg/mL (≈ 73.5 µM)
- MIC (P. aeruginosa; P. aeruginosa KUB No. 5685, AR Bank # 252): 32 µg/mL (≈ 73.5 µM)
- MIC (P. aeruginosa; P. aeruginosa KUB No. 5686, AR Bank # 253): 16 µg/mL (≈ 36.7 µM)
- MIC (P. aeruginosa; P. aeruginosa KUB No. 5687, AR Bank # 254): 4 µg/mL (≈ 9.19 µM)
- MIC (P. aeruginosa; P. aeruginosa KUB No. 5688, AR Bank # 255): 8 µg/mL (≈ 18.4 µM)
- MIC (P. aeruginosa; P. aeruginosa KUB No. 5689, AR Bank # 256): 4 µg/mL (≈ 9.19 µM)
- MIC (P. aeruginosa; P. aeruginosa KUB No. 5690, AR Bank # 257): 8 µg/mL (≈ 18.4 µM)
- MIC (P. aeruginosa; P. aeruginosa KUB No. 5691, AR Bank # 258): 4 µg/mL (≈ 9.19 µM)
- MIC (P. aeruginosa; P. aeruginosa KUB No. 5692, AR Bank # 259): 4 µg/mL (≈ 9.19 µM)
- MIC (P. aeruginosa; P. aeruginosa KUB No. 5693, AR Bank # 260): 8 µg/mL (≈ 18.4 µM)
- MIC (P. aeruginosa; P. aeruginosa KUB No. 5694, AR Bank # 261): 4 µg/mL (≈ 9.19 µM)
- MIC (P. aeruginosa; P. aeruginosa KUB No. 5695, AR Bank # 262): 16 µg/mL (≈ 36.7 µM)
- MIC (P. aeruginosa; P. aeruginosa KUB No. 5696, AR Bank # 263): 2 µg/mL (≈ 4.59 µM)
- MIC (P. aeruginosa; P. aeruginosa KUB No. 5697, AR Bank # 264): 2 µg/mL (≈ 4.59 µM)
- MIC (P. aeruginosa; P. aeruginosa KUB No. 5698, AR Bank # 265): 8 µg/mL (≈ 18.4 µM)
- MIC (P. aeruginosa; P. aeruginosa KUB No. 5699, AR Bank # 266): 4 µg/mL (≈ 9.19 µM)
- MIC (P. aeruginosa; P. aeruginosa KUB No. 5700, AR Bank # 267): 4 µg/mL (≈ 9.19 µM)
- MIC (P. aeruginosa; P. aeruginosa KUB No. 5701, AR Bank # 268): 32 µg/mL (≈ 73.5 µM)
- MIC (P. aeruginosa; P. aeruginosa KUB No. 5702, AR Bank # 269): 16 µg/mL (≈ 36.7 µM)
- MIC (P. aeruginosa; P. aeruginosa KUB No. 5703, AR Bank # 270): 2 µg/mL (≈ 4.59 µM)
- MIC (P. aeruginosa; P. aeruginosa KUB No. 5704, AR Bank # 271): 16 µg/mL (≈ 36.7 µM)
- MIC (P. aeruginosa; P. aeruginosa KUB No. 5705, AR Bank # 272): 4 µg/mL (≈ 9.19 µM)
- MIC (P. aeruginosa; P. aeruginosa KUB No. 5749, AR Bank # 353): 8 µg/mL (≈ 18.4 µM)
- MIC (P. aeruginosa; P. aeruginosa KUB No. 5750, AR Bank # 354): 16 µg/mL (≈ 36.7 µM)
- MIC (P. aeruginosa; P. aeruginosa KUB No. 5754, AR Bank # 358): 32 µg/mL (≈ 73.5 µM)
- MIC (P. aeruginosa; P. aeruginosa KUB No. 5755, AR Bank # 359): 32 µg/mL (≈ 73.5 µM)
- MIC (P. aeruginosa; P. aeruginosa KUB No. 5756, AR Bank # 360): 16 µg/mL (≈ 36.7 µM)
- MIC (P. aeruginosa; P. aeruginosa KUB No. 5785, AR Bank # 439): 4 µg/mL (≈ 9.19 µM)
- MIC (P. aeruginosa; P. aeruginosa KUB No. 5786, AR Bank # 440): 32 µg/mL (≈ 73.5 µM)
- MIC (P. aeruginosa; P. aeruginosa KUB No. 5789, AR Bank # 444): 8 µg/mL (≈ 18.4 µM)
- MIC (P. aeruginosa; P. aeruginosa KUB No. 5800, AR Bank # 457): 32 µg/mL (≈ 73.5 µM)
- MIC (P. aeruginosa; P. aeruginosa KUB No. 5805, AR Bank # 863): 16 µg/mL (≈ 36.7 µM)
- MIC (P. aeruginosa; P. aeruginosa KUB No. 5813, AR Bank # 508): > 0.064 µg/mL
- MIC (P. aeruginosa; P. aeruginosa KUB No. 5814, AR Bank # 509): 0.008 µg/mL (≈ 0.0184 µM)
- MIC (P. aeruginosa; P. aeruginosa KUB No. 5815, AR Bank # 510): 0.0005 µg/mL (≈ 0.00115 µM)
- MIC (P. aeruginosa; P. aeruginosa KUB No. 5816, AR Bank # 511): 0.004 µg/mL (≈ 0.00919 µM)
- MIC (P. aeruginosa; P. aeruginosa KUB No. 5817, AR Bank # 512): 0.032 µg/mL (≈ 0.0735 µM)
- MIC (P. aeruginosa; P. aeruginosa KUB No. 5818, AR Bank # 513): 0.032 µg/mL (≈ 0.0735 µM)
- MIC (P. aeruginosa; P. aeruginosa KUB No. 5819, AR Bank # 514): 0.004 µg/mL (≈ 0.00919 µM)
- MIC (P. aeruginosa; P. aeruginosa KUB No. 5820, AR Bank # 515): 0.032 µg/mL (≈ 0.0735 µM)
- MIC (P. aeruginosa; P. aeruginosa KUB No. 5821, AR Bank # 516): > 0.064 µg/mL
- MIC (P. aeruginosa; P. aeruginosa KUB No. 5823, AR Bank # 518): > 0.064 µg/mL
- MIC (P. aeruginosa; P. aeruginosa KUB No. 5831, AR Bank # 526): 0.004 µg/mL (≈ 0.00919 µM)
- MIC (P. aeruginosa; P. aeruginosa KUB No. 5832, AR Bank # 527): 0.032 µg/mL (≈ 0.0735 µM)
- MIC (P. aeruginosa; P. aeruginosa KUB No. 5834, AR Bank # 529): 0.008 µg/mL (≈ 0.0184 µM)
- MIC (Klebsiella pneumoniae; KUB3633 Klebsiella pneumoniae Clinical isolate): 8 µg/mL (≈ 18.4 µM)
- MIC (Klebsiella pneumoniae; KUB3634 Klebsiella pneumoniae Clinical isolate): 16 µg/mL (≈ 36.7 µM)
- MIC (Escherichia coli): 4 µg/mL (≈ 9.19 µM)
- MIC (Providencia rettgeri): 1 µg/mL (≈ 2.3 µM)
- MIC (CRE and CPE strains; strain KUB3149, carbapenemase gene NDM-1, read-out: MIC): 8 µg/mL (≈ 18.4 µM)
- MIC (CRE and CPE strains; strain KUB3150, carbapenemase gene OXA-48, read-out: MIC): 8 µg/mL (≈ 18.4 µM)
- MIC (CRE and CPE strains; strain KUB3151, carbapenemase gene IMP-1, read-out: MIC): 0.25 µg/mL (≈ 0.574 µM)
- MIC (CRE and CPE strains; strain KUB3158, carbapenemase gene OXA-48): 0.12 µg/mL (≈ 0.276 µM)
- MIC (CRE and CPE strains; strain KUB3163, carbapenemase gene IMP-1): 0.12 µg/mL (≈ 0.276 µM)
- MIC (CRE and CPE strains; strain KUB3164, carbapenemase gene IMP-6): 16 µg/mL (≈ 36.7 µM)
- MIC (CRE and CPE strains; strain KUB3165, carbapenemase gene IMP-34): ≤ 0.03 µg/mL
- MIC (CRE and CPE strains; strain KUB3166, carbapenemase gene IMP-1): 4 µg/mL (≈ 9.19 µM)
- MIC (CRE and CPE strains; strain KUB3628, carbapenemase gene IMP-1): 0.06 µg/mL (≈ 0.138 µM)
